Source: patent US6716428B1, “Antigenic modification of polypeptides” (The Ohio State University Research Foundation, priority 1999, dated 2004)
Square brackets hold non-standard residues; d marks the D form. Ends that are not written are not given here. Nle = CCCC[C@H](N)C(=O)O

Experiments:
[1] = system: rabbit polyclonal antiserum to the 38-57 loop peptide; test: Competition radioimmunoassay with rabbit polyclonal antiserum to the 38-57 loop peptide; type: binding
Method: In the preceding examples, the studied available smallest peptide highly reactive to H-18 MAB was the 40-52 residue peptide and therefore, it was contemplated that the entire epitope resided within this sequence. By the procedures described in earlier examples for other peptides, peptides representing 50-52, 49-52, 48-52, 47-52, 46-52, 45-52, 44-52, 43-52, 42-52, and 41-52 were prepared and tested for reactivity with H-18 MAB and a rabbit polyclonal antiserum to the 38-57 loop peptide.
By earlier described procedures for other peptide preparations, peptides 43-45, 43-46, 43-48, 43-49, 43-50, and 43-51 were prepared to define the C-terminal boundary of the H-18 MAB epitope and to determine whether polyclonal antisera to the 38-57 loop reacted to sequences beyond the H-18 boundary. […] This latter immunogenicity could involve N-terminal residues 41 and 42 and the C-terminal residue 51.
Peptides with amino acid substitutions in the 43-50 sequence were unreactive.

pituitary HLH = test: Antibodies bound to pituitary HLH raised by conjugated 38-57 loop analogs and reference conjugates (Example XLIV); type: in vivo, human; conditions: mean peak binding of the antisera
Method: (§1) In an effort to obtain improved results over the analogs described in my earlier Example XLIII, further synthetic analogs of the unsubstituted 38-57 amino acid sequence of βHCG were prepared and evaluated in a similar manner as set forth in the prior examples. These analogs were provided with a disulfide bridge linking their 38 Cys and 57 Cys to form a loop and included the amino acid residue Ala (Pro)6 on the N-terminus as described earlier herein.
(§2) Table 33 illustrates nine analogs of the 38-57 loop peptide of βHCG with a varying number of amino acid substitutions in the positions outside the conceived 43-50 epitope sequence.
(§3) The antibodies values are expressed herein are as namomoles bound/L unless otherwise stated.

HCG = test: Antibodies bound to HCG raised by conjugated 38-57 loop analogs and reference conjugates (Example XLIV); type: in vivo, human; conditions: for antibodies bound to HCG: mean peak binding of the antisera
Method: as §1, §2, §3

Row | Substance | antibodies against the peptide not directed to the 43-50 region [1] | antibodies bound to pituitary HLH (pituitary HLH) | HCG antibodies bound, of those using the conjugated unsubstituted 38-57 loop sequence (HCG; in vivo) | antibodies bound to HCG (HCG)
1 | CPTMTRVLQGVLPALPQVVC (cysteine pairing not given here) [Structure (XXVII)] | about 5% | – | – | –
2 | CPT[Nle]DRVLQGVLPAVPQVVC (cysteine pairing not given here) [analog number 2] | – | 13 nanomoles bound/L | about 75% | 420 nanomoles bound/L
3 | conjugate including the βHCG 109-145 amino acid sequence: conjugate of the βHCG 109-145 sequence tested in Example XLIV (TCDDPRFQDSSSSKAPPPSLPSPSRLPGPSDTPILPQ; also: conjugated to carrier; UniProt P0DN86 129-165, looked up, fragment) | – | 0 nanomoles bound/L | – | 1240 nanomoles bound/L
